Publication PMC5430962, “Retro-inverso Urokinase Receptor Antagonists for the Treatment of Metastatic Sarcomas” (Scientific Reports, 2017)
Where a SMILES comes first, the peptide text is derived from it. Where no end group is shown, it is not given here. [ ]: non-standard residue; d: D form. The star is where a group is joined. Hydrocinnamoyl = O=C(CCc1ccccc1)*; PhAc = O=C(Cc1ccccc1)*; Aib = CC(C)(N)C(=O)O

Legend:
GFP-tagged Sarc cells = experiment: Growth and spread of subcutaneous GFP-tagged Sarc tumors in nude mice; format: in vivo, Foxn1nu/nu female nude mice; conditions: 6 mg/Kg i.p. every day for 12 days, five mice per group
Protocol: To evaluate the effect of RI-3 on tumor growth and vascularization, Sarc cells were injected, as a single-cell suspension (1 × 10^6 cells in 100 µl of sterile PBS, 97% viability), subcutaneously in the flanks of sixteen six-eight weeks old, Foxn1nu/nu female nude mice (Harlan). Animals were randomized into two 8-mice groups with the treatment group receiving 6 mg/kg RI-3 by intra-peritoneal injection every 24 hr, and the control group receiving an equivalent injected volume of vehicle (PBS) only. Time-dependent average weight was monitored every two days. The length and the width of tumors were measured at different time points with a calliper and volumes were calculated using the formula: ½ × (width)[2] × length (mm). After 10 days, blood samples (at least 500 µL/mouse) from the retro-orbital venous plexus of mice anesthetized with 1% isoflurane were collected using a heparinized capillary tube and processed for determination of the Circulating Tumor Cells (CTCs). Then, the animals were sacrificed, the excised tumors were fixed in buffered formalin and processed for paraffin sectioning. Tumor vascularization was assessed by counting vascular channels harbouring red blood cells on CD31 immuno-stained sections in 5 randomly chosen fields per section, in at least two sections per tumor at x 200 as described. Two additional experiments were carried out with the same experimental design by injecting GFP-tagged Sarc cells (1 × 10^6 cells/mouse) subcutaneously in the flanks of twenty-five six-eight weeks old, Foxn1nu/nu female nude mice (Harlan). Animals were treated with 6 mg/kg RI-3, 6 mg/kg RERF or vehicle by intra-peritoneal injection every 24 hr for 10 or 12 days. Tumor growth and the appearance of positive tumor lesions near tumors and in lungs were monitored as brightly visualized by GFP fluorescence with a MacroFluo fluorescence stereomicroscope (Leica). We searched for the presence of GFP-positive nodules on the entire surface of freshly isolated lungs. Lungs were also sliced at approximately 3-mm thickness to examine the parenchyma in depth, and the positive nodules were acquired at higher magnification.

HT1080 cells [1] = experiment: HT1080 matrigel invasion toward 10% FBS in Boyden chambers; format: cell-based, human; conditions: 10 nM peptide plus 10% FBS, 6 hr, means of three independent experiments in triplicate
Protocol: (§1) Cell migration in Boyden chambers was carried out for 4 hr at 37 °C in humidified air with 5% CO2, as described. Briefly, cell suspension (1 × 10^5 viable cells/mL serum free medium) was seeded in each upper chamber. Lower chambers were filled with DMEM alone, DMEM containing RI peptides, 10 nM fMLF, or 10% FBS with/without RI peptides. The two compartments were separated by 8 μm pore size polycarbonate filters (Neuroprobe) coated with 2.5 µg/mL vitronectin (Corning). For the invasion assays, 8 μm pore size filters were coated with 50 μg/filter matrigel (BD Biosciences) as previously described[40] and cells (3 × 10^4 viable cells/well) were allowed to invade matrigel for 6 hr at 37 °C, 5% CO2. In all cases, at the end of the assay, cells on the lower filter surface were fixed with ethanol, stained with haematoxylin and 10 random fields/filter were counted at 200× magnification. Each experiment was performed three times in triplicate.

HT1080 cells [2] = experiment: HT1080 cell migration toward 10% FBS in Boyden chambers; format: cell-based, human; conditions: 10 nM peptide plus 10% FBS, 4 hr, means of three independent experiments in triplicate
Protocol: as §1

sarcoma cell = conditions: cited from earlier work
Source text: (§2) Following on this observation, we developed a series of linear peptides that inhibit the uPAR/FPR1 interaction and reduce to basal levels directional cell migration, invasion and angiogenesis[37]–[40]. While providing proof-of-principle for the strategy, none of these peptides represents an ideal lead molecule: many of these peptides are unstable to enzymatic digestion in human serum, which limits their half-life in vivo, whereas ...

[3] = cited from earlier work
Source text: as §2

HT1080 cells [4] = experiment: HT1080 cell migration toward peptide as chemoattractant, xCELLigence RTCA; format: cell-based, human; conditions: migration toward 10 nM peptide, monitored 18 hr, quadruplicate
Protocol: The kinetics of cell migration was monitored in real time using the xCELLigence Real Time Cell Analysis (RTCA) technology (Acea Bioscience) as described, [80]. For these experiments we used CIM-plates which are provided with interdigitated gold microelectrodes on the bottom side of a filter membrane interposed between a lower and an upper compartment. The lower chamber was filled with serum-free medium or growth medium with/without RI peptides. Cells (2 × 10^4 cells/well) were seeded on filters in serum-free medium. Cell migration was monitored for 18 hr, and each experiment was performed at least twice in quadruplicate.

FPR1 [5] = molecular target: T1, FPR1 (Homo sapiens, UniProt P21462); experiment: Agonist-dependent FPR1 internalization, fluorescence microscopy in RBL-2H3/ETFR cells; format: cell-based; conditions: 100 nM peptide 30 min at 37 °C, then 10 nM FITC-fMLF 30 min at 37 °C; confocal microscopy
T1 construct: expressed in transfected cells; host or cells: rat basophilic leukaemia RBL-2H3/ETFR cells (gift of F. Blasi)
T1 sequence (P21462 1-350): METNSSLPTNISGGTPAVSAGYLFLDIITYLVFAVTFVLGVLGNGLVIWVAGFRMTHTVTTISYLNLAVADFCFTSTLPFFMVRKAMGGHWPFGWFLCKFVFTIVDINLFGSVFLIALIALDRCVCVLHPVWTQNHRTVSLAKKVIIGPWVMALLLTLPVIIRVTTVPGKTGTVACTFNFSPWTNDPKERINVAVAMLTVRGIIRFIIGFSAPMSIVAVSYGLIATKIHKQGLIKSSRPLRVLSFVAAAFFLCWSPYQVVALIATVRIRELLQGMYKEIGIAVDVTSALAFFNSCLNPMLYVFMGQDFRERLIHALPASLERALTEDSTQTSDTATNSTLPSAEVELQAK
Protocol: Cells grown on glass slides to semi-confluence were exposed to diluents or the indicated unlabeled peptides for 30 min at 37 °C, then to 10 nM FITC-fMLF in PBS for additional 30 min at 37 °C and extensively rinsed with PBS. To visualize the cytoskeleton, the cells were fixed with 2.5% formaldehyde, permeabilized with 0.1% Triton X-100 for 10 min at 4 °C, and incubated with 0.1 µg/mL rhodamine-conjugated phalloidin (Sigma-Aldrich) for 40 min. In all cases, coverslips were mounted using 20% (w/v) Mowiol, visualized with a Zeiss 510META-LSM microscope (Carl Zeiss), and z-series were collected at 0.20 µm intervals.

FPR1 [6] = molecular target: T1, FPR1; experiment: Ligand binding assay: FITC-fMLF binding to RBL-2H3/ETFR cells; conditions: 100 nM unlabeled peptide 60 min at 4 °C, then 10 nM FITC-fMLF 60 min at 4 °C; fluorescence plate reader
Protocol: RBL-2H3 cells, RBL-2H3/ETFR cells stably expressing FPR1 (1.5 × 10^6 cells/sample) were pre-incubated with diluents or the indicated unlabeled peptides for 60 min at 4 °C, extensively rinsed with phosphate buffer saline (PBS), exposed to 10 nM FITC-fMLF (Molecular Probes) in PBS for additional 60 min at 4 °C and again rinsed with PBS. Cell-associated fluorescence was quantitated with the fluorescence plate reader Victor 3 (Perkin Elmer) using 485 nm excitation and 535 nm emission filters. The experiments were performed three times in triplicate.

monocyte = conditions: read-out: IC50 of inhibition of fMLF-induced monocyte locomotion; cited from earlier work
Source text: The uPAR domains DI-DIII are connected by short linker regions. DI-DIII pack together into a concave structure that shifts to an active conformation upon binding to uPA[21], [22]. The linker between DI-DII is more flexible than that between the DII‒DIII domains[23]–[25], and includes the protease-sensitive crucial signaling region, uPAR84–95. In the form of a synthetic peptide, the minimal 88–92 sequence (Ser^88-Arg-Ser-Arg-Tyr^92, SRSRY) retains chemotactic activity and triggers directional cell migration and angiogenesis in vitro and in vivo [15]–[17], [26], [27]. Mechanistically, these ...

With `CC(=O)N[C@@H](CCCNC(=N)N)C(=O)N[C@@H](CCC(=O)O)C(=O)N[C@@H](CCCNC(=N)N)C(=O)N[C@@H](Cc1ccccc1)C(N)=O` [RERF, reference compound] (Ac-RERF-NH2) the “changes in body weight” value (GFP-tagged Sarc cells) was “did not cause changes in body weight”.
In the case of `CC(=O)N[C@H](Cc1ccc(O)cc1)C(=O)N[C@H](CCCNC(=N)N)C(=O)N[C@H](CCC(=O)O)C(=O)N[C@H](CCCNC(=N)N)C(N)=O` [RI-1, Ac-(D)-Tyr-(D)-Arg-(D)-Glu-(D)-Arg-NH2] (Ac-[dY][dR][dE][dR]-NH2), the “reduction of the extent of cell invasion (matrigel)” value (shortened to “reduction … (matrigel)”) (HT1080 cells [1]) is reported as 27% and the “reduction of FBS-directed cell migration” value (HT1080 cells [2]) is reported as 33%.
With `CC(=O)N[C@H](Cc1ccc(O)cc1)C(=O)N[C@H](CCCNC(=N)N)C(=O)N[C@H](CO)C(=O)N[C@H](CCCNC(=N)N)C(N)=O` [RI-2, Ac-(D)-Tyr-(D)-Arg-(D)-Ser-(D)-Arg-NH2] (Ac-[dY][dR][dS][dR]-NH2) the “reduction … (matrigel)” value (HT1080 cells [1]) was 23% and the “reduction of FBS-directed cell migration” value (HT1080 cells [2]) was 29%.
For `CC(C)(NC(=O)[C@@H](CCCNC(=N)N)NC(=O)Cc1ccccc1)C(=O)N[C@H](CCCNC(=N)N)C(N)=O` [RI-4, Phenyl-Acetyl-D-Arg-Aib-D-Arg-NH2] (PhAc-[dR]-[Aib]-[dR]-NH2), the “reduction … (matrigel)” value (HT1080 cells [1]) was 23% and the “reduction of FBS-directed cell migration” value (HT1080 cells [2]) was 37%.
In the case of `CC(C)(NC(=O)[C@@H](CCCNC(=N)N)NC(=O)CCc1ccccc1)C(=O)N[C@H](CCCNC(=N)N)C(N)=O` [RI-5, 3-Phenyl-Propionyl-D-Arg-Aib-D-Arg-NH2] (Hydrocinnamoyl-[dR]-[Aib]-[dR]-NH2), the “reduction … (matrigel)” value (HT1080 cells [1]) is reported as 9% and the “reduction of FBS-directed cell migration” value (HT1080 cells [2]) is reported as 28%.
For “Ac-L-Arg-Aib-L-Arg-D-Ca(Me)Phe-NH2 [UPARANT]”, the “inhibition of sarcoma cell invasion in a mouse model of lung colonization” value (sarcoma cell) is given as “does not inhibit” and the “stability in blood and resistance to enzymatic proteolysis” value [3] is given as “stable in blood and displays prolonged resistance to enzymatic proteolysis”.
With “N-formyl-Met-Leu-Phe [fMLF, N-formyl-methionyl-leucyl-phenylalanine, reference compound]” the “ability to trigger cell migration” value (HT1080 cells [4]) was “elicited a considerable cell migration”, the “effect on agonist-dependent FPR1 internalization” value (FPR1 [5]) was “prevented” and the “effect on binding of FITC-fMLF to RBL-2H3/ETFR cells” value (FPR1 [6]) was “strongly reduced”.
For “cyclized SRSRY: cyclized form of the uPAR 88–92 sequence Ser-Arg-Ser-Arg-Tyr (also: cyclized, mode not given here)”, the IC50 (monocyte) is listed as 10 pM.
